Data from ChEMBL document CHEMBL1697723, “A predictive ligand-based Bayesian model for human drug-induced liver injury” (Drug Metab Dispos, 2010).
Starred links: 1 amine or outer side, 2 acyl side, 3 side chain; linkers in the order of their positions; H or OH if unused. Positions of bridges follow the written chain, without caps; N, C: chain ends. Non-standard residues stand in square brackets, D forms with d. Residues, ends and D or L forms follow the SMILES beside them. Adda = CO[C@@H](Cc1ccccc1)[C@@H](C)/C=C(C)/C=C/[C@H](N[*:1])[C@H](C)C(=O)[*:2]; dAsp(3S-Me) = C[C@H](C(=O)[*:3])[C@@H](N[*:1])C(=O)[*:2]; d(γGlu) = O=C(O)[C@@H](CCC(=O)[*:2])N[*:1]; NMeDha = C=C(NC)C(=O)O

test system: Hepatotoxicity; assay: Human drug-induced liver injury (DILI) modelling dataset from Ekins et al; details: not given

| Compound | Hepatotoxicity |
| --- | --- |
| CC[C@@H](CO)NC(=O)[C@@H]1C=C2c3cccc4c3c(cn4C)C[C@H]2N(C)C1.O=C(O)/C=C\C(=O)O [METHYSERGIDE MALEATE] | DILI negative (training set) |
| Cc1ccccc1N1C(=O)c2cc(S(N)(=O)=O)c(Cl)cc2NC1C (stereo unspecified) [METOLAZONE] | DILI positive (test set) |
| Cc1ncc([N+](=O)[O-])n1CCO [METRONIDAZOLE] | DILI positive (training set) |
| CN1CCN2c3ccccc3Cc3ccccc3C2C1 (stereo unspecified) [MIANSERIN] | DILI positive (test set) |
| COCC(=O)O[C@]1(CCN(C)CCCc2nc3ccccc3[nH]2)CCc2cc(F)ccc2[C@@H]1C(C)C [MIBEFRADIL] | DILI negative (test set) |
| Clc1ccc(COC(Cn2ccnc2)c2ccc(Cl)cc2Cl)c(Cl)c1 (stereo unspecified) [MICONAZOLE] | DILI negative (training set) |
| C=C1C(=O)N[C@H](C)C(=O)N[C@@H](CC(C)C)C(=O)N[C@@H](C(=O)O)[C@H](C)C(=O)N[C@@H](CCCNC(=N)N)C(=O)N[C@@H](/C=C/C(C)=C/[C@H](C)[C@H](Cc2ccccc2)OC)[C@H](C)C(=O)N[C@@H](C(=O)O)CCC(=O)N1C [MICROCYSTIN-LR] (R[Adda][d(γGlu)][NMeDha][dA]L[dAsp(3S-Me)]-OH; lactam N-7) | DILI positive (test set) |
| CN(C)c1ccc(O)c2c1C[C@H]1C[C@H]3[C@H](N(C)C)C(O)=C(C(N)=O)C(=O)[C@@]3(O)C(O)=C1C2=O.Cl [MINOCYCLINE HYDROCHLORIDE] | DILI positive (test set) |
| Cl.Cl.O=C1c2c(O)ccc(O)c2C(=O)c2c(NCCNCCO)ccc(NCCNCCO)c21 [MITOXANTRONE HYDROCHLORIDE] | DILI positive (training set) |
| CCc1c(C)[nH]c2c1C(=O)C(CN1CCOCC1)CC2.Cl (stereo unspecified) [MOLINDONE HYDROCHLORIDE] | DILI positive (training set) |
| C[C@@H]1C[C@H]2[C@@H]3CCC4=CC(=O)C=C[C@]4(C)[C@@]3(Cl)[C@@H](O)C[C@]2(C)[C@@]1(OC(=O)c1ccco1)C(=O)CCl [MOMETASONE FUROATE] | DILI negative (test set) |
| C[C@H]1C(=O)O[C@@H]2CCN3CC=C(COC(=O)[C@](C)(O)[C@]1(C)O)[C@H]23 [MONOCROTALINE] | DILI positive (training set) |
| CC(C)(O)c1ccccc1CC[C@@H](SCC1(CC(=O)O)CC1)c1cccc(/C=C/c2ccc3ccc(Cl)cc3n2)c1 [MONTELUKAST] | DILI negative (training set) |
| CCOC(=O)Nc1ccc2c(c1)N(C(=O)CCN1CCOCC1)c1ccccc1S2.Cl [MORICIZINE HYDROCHLORIDE] | DILI positive (test set) |
| CO[C@@]1(NC(=O)C(C(=O)[O-])c2ccc(O)cc2)C(=O)N2C(C(=O)[O-])=C(CSc3nnnn3C)CO[C@@H]21.[Na+].[Na+] (stereo partly specified) [MOXALACTAM DISODIUM] | DILI negative (test set) |
| CN(C)N=O [N-NITROSODIMETHYLAMINE] | DILI positive (test set) |
| CC(C)(C)NCC(O)COc1cccc2c1CC(O)C(O)C2 (stereo unspecified) [NADOLOL] | DILI negative (training set) |
| CCOc1ccc2ccccc2c1C(=O)N[C@@H]1C(=O)N2[C@@H]1SC(C)(C)[C@@H]2C(=O)[O-].O.[Na+] [NAFCILLIN SODIUM] | DILI negative (test set) |
| CCn1cc(C(=O)O)c(=O)c2ccc(C)nc21 [NALIDIXIC ACID] | DILI positive (training set) |

| Compound | Hepatotoxicity |
| --- | --- |
| O=C1CC[C@@]2(O)[C@H]3Cc4ccc(O)c5c4[C@@]2(CCN3CC2CC2)[C@H]1O5 [NALTREXONE] | DILI positive (training set) |
| CCc1nn(CCCN2CCN(c3cccc(Cl)c3)CC2)c(=O)n1CCOc1ccccc1 [NEFAZODONE] | DILI positive (test set) |
| COC(=O)C1=C(C)NC(C)=C(C(=O)OCCN(C)Cc2ccccc2)C1c1cccc([N+](=O)[O-])c1.Cl (stereo unspecified) [NICARDIPINE HYDROCHLORIDE] | DILI positive (training set) |
| COC(=O)C1=C(C)NC(C)=C(C(=O)OC)C1c1ccccc1[N+](=O)[O-] [NIFEDIPINE] | DILI positive (training set) |
| COCCOC(=O)C1=C(C)NC(C)=C(C(=O)OC(C)C)C1c1cccc([N+](=O)[O-])c1 (stereo unspecified) [NIMODIPINE] | DILI positive (training set) |
| COC(=O)C1=C(C)NC(C)=C(C(=O)OCC(C)C)C1c1ccccc1[N+](=O)[O-] (stereo unspecified) [NISOLDIPINE] | DILI negative (training set) |
| COC(=O)Nc1nc2ccc(C(=O)c3cccs3)cc2[nH]1 [NOCODAZOLE] | DILI negative (training set) |
| CN1Cc2c(N)cccc2C(c2ccccc2)C1 (stereo unspecified) [NOMIFENSINE] | DILI positive (training set) |
| CO[C@@H]1[C@@H](OC(N)=O)[C@@H](O)[C@H](Oc2ccc3c(O)c(NC(=O)c4ccc(O)c(CC=C(C)C)c4)c(=O)oc3c2C)OC1(C)C [NOVOBIOCIN] | DILI positive (training set) |
| CCCCC(CC)COC(=O)C=Cc1ccc(OC)cc1 (stereo unspecified) [OCTINOXATE] | DILI positive (test set) |
| CCCc1nc(C(C)(C)O)c(C(=O)O)n1Cc1ccc(-c2ccccc2-c2nnn[nH]2)cc1 [OLMESARTAN] | DILI negative (test set) |
| Cc1ccccc1C(OCCN(C)C)c1ccccc1.O=C(O)CC(O)(CC(=O)O)C(=O)O (stereo unspecified) [ORPHENADRINE CITRATE] | DILI negative (training set) |
| O=C(O)CCc1nc(-c2ccccc2)c(-c2ccccc2)o1 [OXAPROZIN] | DILI positive (test set) |
| CCCOc1ccc2nc(NC(=O)OC)[nH]c2c1 [OXIBENDAZOLE] | DILI positive (training set) |
| CC[N+](C)(CC)CCOC(=O)C(O)(c1ccccc1)C1CCCCC1 (stereo unspecified) [OXYPHENONIUM] | DILI negative (training set) |
| NCCC(O)(P(=O)(O)O)P(=O)(O)O [PAMIDRONIC ACID] | DILI negative (training set) |
| C#CCN(C)Cc1ccccc1 [PARGYLINE] | DILI negative (test set) |
| NC[C@@H]1O[C@H](O[C@H]2[C@@H](O)[C@H](O[C@@H]3[C@@H](O)[C@H](N)C[C@H](N)[C@H]3O[C@H]3O[C@H](CO)[C@@H](O)[C@H](O)[C@H]3N)O[C@@H]2CO)[C@H](N)[C@@H](O)[C@@H]1O.O=S(=O)(O)O [PAROMOMYCIN SULFATE] | DILI negative (training set) |
| Fc1ccc([C@@H]2CCNC[C@H]2COc2ccc3c(c2)OCO3)cc1 [PAROXETINE] | DILI negative (training set) |

| Compound | Hepatotoxicity |
| --- | --- |
| NC1=NC(=O)C(c2ccccc2)O1 (stereo unspecified) [PEMOLINE] | DILI positive (test set) |
| CC(C)(C)NC[C@H](O)COc1ccccc1C1CCCC1.CC(C)(C)NC[C@H](O)COc1ccccc1C1CCCC1.O=S(=O)(O)O [PENBUTOLOL SULFATE] | DILI positive (test set) |
| CC1(C)S[C@@H]2[C@H](NC(=O)Cc3ccccc3)C(=O)N2[C@H]1C(=O)[O-].[Na+] [PENICILLIN G SODIUM] | DILI positive (training set) |
| C1CCC(C(CC2CCCCN2)C2CCCCC2)CC1 (stereo unspecified) [PERHEXILINE] | DILI positive (training set) |
| CC1(C)C(C=C(Cl)Cl)C1C(=O)OCc1cccc(Oc2ccccc2)c1 (stereo unspecified) [PERMETHRIN] | DILI negative (test set) |
| CCOc1ccc(NC(C)=O)cc1 [PHENACETIN] | DILI positive (training set) |
| Cl.Nc1ccc(/N=N/c2ccccc2)c(N)n1 [PHENAZOPYRIDINE HYDROCHLORIDE] | DILI positive (training set) |
| c1ccc2c(c1)Nc1ccccc1S2 [PHENOTHIAZINE] | DILI positive (test set) |
| CC(COc1ccccc1)N(CCCl)Cc1ccccc1.Cl (stereo unspecified) [PHENOXYBENZAMINE HYDROCHLORIDE] | DILI negative (training set) |
| CS(=O)(=O)O.Cc1ccc(N(CC2=NCCN2)c2cccc(O)c2)cc1 [PHENTOLAMINE MESYLATE] | DILI positive (training set) |
| S=C=Nc1ccccc1 [PHENYLISOTHIOCYANATE] | DILI positive (test set) |
| CC(N)C(O)c1ccccc1.Cl (stereo unspecified) [PHENYLPROPANOLAMINE HYDROCHLORIDE] | DILI negative (training set) |
| CNC(=O)Oc1ccc2c(c1)[C@]1(C)CCN(C)[C@@H]1N2C [PHYSOSTIGMINE] | DILI negative (training set) |
| CC[C@@H]1C(=O)OC[C@@H]1Cc1cncn1C [PILOCARPINE] | DILI negative (training set) |
| O=c1[nH]c2ccccc2n1C1CCN(CCCC(c2ccc(F)cc2)c2ccc(F)cc2)CC1 [PIMOZIDE] | DILI negative (test set) |
| CC(N/C(=N\C#N)Nc1ccncc1)C(C)(C)C (stereo unspecified) [PINACIDIL ANHYDROUS] | DILI negative (training set) |
| CC(C)NCC(O)COc1cccc2[nH]ccc12 (stereo unspecified) [PINDOLOL] | DILI negative (training set) |
| CCc1ccc(CCOc2ccc(CC3SC(=O)NC3=O)cc2)nc1 (stereo unspecified) [PIOGLITAZONE] | DILI negative (test set) |
| CN1C(C(=O)Nc2ccccn2)=C(O)c2ccccc2S1(=O)=O [PIROXICAM] | DILI positive (training set) |

same assay, conditions: Liver

| Compound | Hepatotoxicity |
| --- | --- |
| CC1(C)S[C@@H]2[C@H](NC(=O)[C@H](NC(=O)N3CCN(S(C)(=O)=O)C3=O)c3ccccc3)C(=O)N2[C@H]1C(=O)[O-].[Na+] [MEZLOCILLIN SODIUM] | DILI positive (test set) |
| COc1ccc2cc([C@H](C)C(=O)O)ccc2c1 [NAPROXEN] | DILI negative (test set) |
| O=C1CN(/N=C/c2ccc([N+](=O)[O-])o2)C(=O)N1 [NITROFURANTOIN] | DILI positive (test set) |
| C#CC1(O)CC[C@H]2[C@@H]3CCC4=CC(=O)CC[C@@H]4[C@H]3CC[C@@]21CC (stereo partly specified) [NORGESTREL] | DILI positive (training set) |
| CNCCC=C1c2ccccc2CCc2ccccc21.Cl [NORTRIPTYLINE HYDROCHLORIDE] | DILI positive (training set) |
| O=S(=O)(O)O.Oc1cccc2cccnc12.Oc1cccc2cccnc12 [OXYQUINOLINE SULFATE] | DILI positive (test set) |
| CC(=O)O[C@H]1C(=O)[C@@]2(C)[C@H]([C@H](OC(=O)c3ccccc3)[C@]3(O)C[C@H](OC(=O)[C@H](O)[C@@H](NC(=O)c4ccccc4)c4ccccc4)C(C)=C1C3(C)C)[C@]1(OC(C)=O)CO[C@@H]1C[C@@H]2O [PACLITAXEL] | DILI positive (test set) |
| NNCCc1ccccc1 [PHENELZINE] | DILI negative (training set) |
| O=C1NC(=O)C(c2ccccc2)(c2ccccc2)N1 [PHENYTOIN] | DILI positive (training set) |
